From patent US7273878B2, “Difluoroalkene derivative, pest control agent containing the same, and intermediate therefor” (Kumiai Chemical Industry Co., Ltd., priority 2001, dated 2007)

Key:
Nilaparvata lugenis = assay: Insecticidal test for Nilaparvata lugenis; format: in vivo; settings: 144 h, 500 ppm active ingredient (wettable powder), 4-instar larvae on germinated rice paddy, 25° C., after 6 days, read-out: mortality rate
Protocol: The wettable powder prepared according to the above Preparation Example 2 was diluted with water to a concentration of 500 ppm as a concentration of active ingredient. After soaking the germinated rice paddy in the test solution, the paddy was transferred into a 60 ml volume of plastic cup. Ten (10) heads of 4-instar larvae of Nilaparvata lugenis were inoculated on the paddy and capped, then left at the constant temperature of 25° C. After 6 days from the inoculation, the number of surviving insects was counted, and mortality rate of the insect was calculated according to the following formula 1. mortality rate (%)=[(10−number of surviving insect in the test field)/10]×100 (1)

ddy mouse (Slc:ddy) = assay: Oral acute toxicity test; format: in vivo; design: key: 0/3 means none of 3 recipient animals died; 1/3 means one out of 3 recipient animals died; 2/3 means 2 out of 3 recipient animals died; 3/3 means all 3 recipient animals died; settings: oral 30 mg/kg, mortality investigated for 7 days; for Test result Female (mortality, animals died out of 3): female ddy mouse; for Test result Male (mortality, animals died out of 3): male ddy mouse
Protocol: Oral acute toxicity test was conducted according to the method described in the guideline in “Guideline for the Preparation of Test Report on the Toxicity Studies”, published by the Ministry of Agriculture, Forestry and Fisheries of Japan. Experimental animals, 3 each of male and female of 7 weeks aged ddy mouse (Slc:ddy), were obtained from SLC Japan Inc. The compounds of the present invention and the reference substances were suspended in 0.5% sodium carboxymethyl cellulose or corn oil to give a 30 (mg/kg) equivalent amount for a dosage of 10 ml per 1 kg of body weight. The suspensions were inoculated using a sonde directly into the stomach of test animals which were fasted for 3 hours before inoculation. The test animals were fasted for additional 3 hours after inoculation, and the mortality of the inoculated animal was investigated for 7 days. In this table, 0/3 means none of 3 recipient animals died, 1/3 means one out of 3 recipient animals died, 2/3 means 2 out of 3 recipient animals died, 3/3 means all 3 recipient animals died.

Work on `CC(CCCCOC(=O)c1cnc(-c2ccccc2)s1)=C(F)F` [Compound 132, 6,6-difluoro-5-methyl-5-hexenyl 2-phenylthiazole-5-carboxylate] yielded a mortality at 500 ppm (Nilaparvata lugenis) of no less than 90%.

`CC(CCCCOC(=O)c1nsc2ccccc12)=C(F)F` [Compound 45, 6,6-difluoro-5-methyl-5-hexenyl benzo[d]isothiazole-3-carboxylate] was tested, and the mortality at 500 ppm (Nilaparvata lugenis) was no less than 90%.

With `CC(CCCCOC(=O)c1ccc2[nH]ccc2c1)=C(F)F` [Compound 15, 6,6-difluoro-5-methyl-5-hexenyl 1H-indole-5-carboxylate] the mortality at 500 ppm (Nilaparvata lugenis) was no less than 90%.

Work on `CC(CCCCOC(=O)c1ccc2ocnc2c1)=C(F)F` [Compound 43, 6,6-difluoro-5-methyl-5-hexenyl benzoxazole-5-carboxylate] yielded a mortality at 500 ppm (Nilaparvata lugenis) of no less than 90%.

Molecule `CC(CCCCOC(=O)c1cccn1C)=C(F)F` [Compound 38, 6,6-difluoro-5-methyl-5-hexenyl 1-methyl-1H-pyrrole-2-carboxylate] has a mortality at 500 ppm (Nilaparvata lugenis) of no less than 90%.

With `CC(CCOC(=O)c1cc2ccccc2s1)=C(F)F` [Compound 18, 4,4-difluoro-3-methyl-3-butenyl benzo[b]thiophene-2-carboxylate] the “Test result Female (mortality, animals died out of 3)” value (from here on “Test result Female”) (ddy mouse (Slc:ddy)) was 0/3 and the “Test result Male (mortality, animals died out of 3)” value (“Test result Male” for short) (ddy mouse (Slc:ddy)) was 0/3.

For `CC(CCCCOC(=O)c1snnc1-c1ccccc1)=C(F)F` [Compound 11, 6,6-difluoro-5-methyl-5-hexenyl 4-phenyl[1,2,3]-thiadiazole-5-carboxylate], the mortality at 500 ppm (Nilaparvata lugenis) was no less than 90%.

In the case of `CC(CCCCOC(=O)c1cnsn1)=C(F)F` [Compound 22, 6,6-difluoro-5-methyl-5-hexenyl [1,2,5]thiadiazole-3-carboxylate], the mortality at 500 ppm (Nilaparvata lugenis) is reported as no less than 90%.

For `CC(CCCCOC(=O)c1cc2ccccc2s1)=C(F)F` [Compound 3, 6,6-difluoro-5-methyl-5-hexenyl benzo[b]thiophene-2-carboxylate], the “Test result Female” value (ddy mouse (Slc:ddy)) was 0/3 and the “Test result Male” value (ddy mouse (Slc:ddy)) was 0/3.

With `CCCCOc1ncc(C(=O)OCCC=C(F)F)c(C)n1` [Reference compound B, 4,4-difluoro-3-butenyl 2-butoxy-4-methylpyrimidine-5-carboxylate, reference compound] the “Test result Female” value (ddy mouse (Slc:ddy)) was 3/3 and the “Test result Male” value (ddy mouse (Slc:ddy)) was 3/3.

In the case of `CC(CCCCOC(=O)c1cnc2ccccc2c1)=C(F)F` [Compound 8, 6,6-difluoro-5-methyl-5-hexenyl quinoline-3-carboxylate], the mortality at 500 ppm (Nilaparvata lugenis) is reported as no less than 90%.

`CC(=O)N1CCC(C(=O)OCCCCC(C)=C(F)F)CC1` [Compound 40, 6,6-difluoro-5-methyl-5-hexenyl 1-acetylpiperidine-4-carboxylate] gave a mortality at 500 ppm (Nilaparvata lugenis) of no less than 90%.

Work on `CC(CCCCOC(=O)c1sccc1C)=C(F)F` [Compound 2, 6,6-difluoro-5-methyl-5-hexenyl 3-methylthiophene-2-carboxylate] yielded a mortality at 500 ppm (Nilaparvata lugenis) of no less than 90%.

`CCc1nn(C)c(C(=O)OCCCCC(C)=C(F)F)c1Cl` [Compound 26, 6,6-difluoro-5-methyl-5-hexenyl 4-chloro-5-ethyl-2-methyl-2H-pyrazole-3-carboxylate] gave a mortality at 500 ppm (Nilaparvata lugenis) of no less than 90%.

In the case of `CC(CCOC(=O)c1cccn1CC1CC1)=C(F)F` [Compound 281, 4,4-difluoro-3-methyl-3-butenyl 1-cyclopropylmethyl-1H-pyrrole-2-carboxylate], the mortality at 500 ppm (Nilaparvata lugenis) is reported as no less than 90%.

Molecule `CC(CCCCCCOC(=O)c1cc2ccccc2s1)=C(F)F` [Compound 10, 8,8-difluoro-7-methyl-7-octenyl benzo[b]thiophene-2-carboxylate] has a mortality at 500 ppm (Nilaparvata lugenis) of no less than 90%.

For `CC(CCCCOC(=O)c1noc2ccccc12)=C(F)F` [Compound 44, 6,6-difluoro-5-methyl-5-hexenyl benzo[d]isoxazole-3-carboxylate], the mortality at 500 ppm (Nilaparvata lugenis) was no less than 90%.

With `CC(CCCCOC(=O)c1cc(Cl)nnc1Cl)=C(F)F` [Compound 48, 6,6-difluoro-5-methyl-5-hexenyl 3,6-dichloropyridazine-4-carboxylate] the mortality at 500 ppm (Nilaparvata lugenis) was no less than 90%.

In the case of `CC(CCCCOC(=O)c1sc(-c2ccccc2)nc1C)=C(F)F` [Compound 29, 6,6-difluoro-5-methyl-5-hexenyl 4-methyl-2-phenyl-thiazole-5-carboxylate], the “Test result Female” value (ddy mouse (Slc:ddy)) is reported as 0/3 and the “Test result Male” value (ddy mouse (Slc:ddy)) is reported as 0/3.

Work on `CCn1c(C(=O)OCCCCC(C)=C(F)F)cc2ccccc21` [Compound 25, 6,6-difluoro-5-methyl-5-hexenyl 1-ethyl-1H-indole-2-carboxylate] yielded a mortality at 500 ppm (Nilaparvata lugenis) of no less than 90%.

For `O=C(OCCCCC=C(F)F)c1ccc(Cl)nc1` [Reference compound A, 6,6-difluoro-5-hexenyl 6-chloronicotinate, reference compound], the “Test result Female” value (ddy mouse (Slc:ddy)) was 3/3 and the “Test result Male” value (ddy mouse (Slc:ddy)) was 3/3.

`CC(CCCCOC(=O)c1snc(Cl)c1Cl)=C(F)F` [Compound 49, 6,6-difluoro-5-methyl-5-hexenyl 3,4-dichloroisothiazole-5-carboxylate] showed a mortality at 500 ppm (Nilaparvata lugenis) of no less than 90%.

`CC(CCCCOC(=O)c1csc(-c2ccccc2)n1)=C(F)F` [Compound 129, 6,6-difluoro-5-methyl-5-hexenyl 2-phenylthiazole-4-carboxylate] gave a mortality at 500 ppm (Nilaparvata lugenis) of no less than 90%.

Molecule `CC(CCCCOC(=O)c1nc(C)n(-c2ccccc2)n1)=C(F)F` [Compound 47, 6,6-difluoro-5-methyl-5-hexenyl 5-methyl-1-phenyl-1H-[1,2,4]triazole-3-carboxylate] has a mortality at 500 ppm (Nilaparvata lugenis) of no less than 90%.

For `CC(CCCCOC(=O)c1nc2ccccc2s1)=C(F)F` [Compound 21, 6,6-difluoro-5-methyl-5-hexenyl benzothiazole-2-carboxylate], the mortality at 500 ppm (Nilaparvata lugenis) was no less than 90%.

`CC(CCCCOC(=O)c1ccco1)=C(F)F` [Compound 9, 6,6-difluoro-5-methyl-5-hexenyl furan-2-carboxylate] showed a mortality at 500 ppm (Nilaparvata lugenis) of no less than 90%.

`CC(CCOC(=O)c1cccn1CC#N)=C(F)F` [Compound 282, 4,4-difluoro-3-methyl-3-butenyl 1-cyanomethyl-1H-pyrrole-2-carboxylate] gave a mortality at 500 ppm (Nilaparvata lugenis) of no less than 90%.

In the case of `CC(CCCCOC(=O)c1cn(C)cn1)=C(F)F` [Compound 39, 6,6-difluoro-5-methyl-5-hexenyl 1-methyl-1H-imidazole-4-carboxylate], the mortality at 500 ppm (Nilaparvata lugenis) is reported as no less than 90%.

`O=C(OCCCCC=C(F)F)c1cc2ccccc2s1` [Reference compound D, 6,6-difluoro-5-hexenyl benzo[b]thiophen-2-carboxylate, reference compound] was tested, and the “Test result Female” value (ddy mouse (Slc:ddy)) was 3/3 and the “Test result Male” value (ddy mouse (Slc:ddy)) was 3/3.

Molecule `CC(CCOC(=O)c1nc(C)cc(-c2ccccc2)n1)=C(F)F` [Compound 278, 4,4-difluoro-3-methyl-3-butenyl 4-methyl-6-phenyl-pyrimidine-2-carboxylate] has a mortality at 500 ppm (Nilaparvata lugenis) of no less than 90%.

`CC(CCOC(=O)c1c2c(nn1C)CCC2)=C(F)F` [Compound 242, 4,4-difluoro-3-methyl-3-butenyl 2-methyl-2,4,5,6-tetrahydrocyclopentapyrazole-3-carboxylate] showed a mortality at 500 ppm (Nilaparvata lugenis) of no less than 90%.

`CC(CCCCOC(=O)c1cnccn1)=C(F)F` [Compound 28, 6,6-difluoro-5-methyl-5-hexenyl pyrazine-2-carboxylate] was tested, and the mortality at 500 ppm (Nilaparvata lugenis) was no less than 90%.

`CC(CCOC(=O)c1ncccc1C(=O)Nc1ccccc1)=C(F)F` [Compound 234, 4,4-difluoro-3-methyl-3-butenyl 3-phenylcarbamoyl-pyridine-2-carboxylate] showed a mortality at 500 ppm (Nilaparvata lugenis) of no less than 90%.

`Cc1nc(-c2ccccc2)ncc1C(=O)OCCC=C(F)F` [Reference compound C, 4,4-difluoro-3-butenyl 4-methyl-2-phenylpyrimidine-5-carboxylate, reference compound] was tested, and the “Test result Female” value (ddy mouse (Slc:ddy)) was 3/3 and the “Test result Male” value (ddy mouse (Slc:ddy)) was 3/3.

With `CC(CCOC(=O)c1cnc(N(C)c2ccccc2)nc1C)=C(F)F` [Compound 119, 4,4-difluoro-3-methyl-3-butenyl 4-methyl-2-(N-methyl-N-phenylamino)pyrimidine-5-carboxylate] the “Test result Female” value (ddy mouse (Slc:ddy)) was 0/3 and the “Test result Male” value (ddy mouse (Slc:ddy)) was 0/3.

`CCCCOc1cc(C(=O)OCCC(C)=C(F)F)nc(C)n1` [Compound 276, 4,4-difluoro-3-methyl-3-butenyl 6-butoxy-2-methyl-pyrimidine-4-carboxylate] gave a mortality at 500 ppm (Nilaparvata lugenis) of no less than 90%.

`CC(CCCCOC(=O)C1CCOC1)=C(F)F` (stereo not shown) [Compound 41, 6,6-difluoro-5-methyl-5-hexenyl tetrahydrofuran-3-carboxylate] showed a mortality at 500 ppm (Nilaparvata lugenis) of no less than 90%.

`CCOc1oc(-c2ccccc2)nc1C(=O)OCCCCC(C)=C(F)F` [Compound 50, 6,6-difluoro-5-methyl-5-hexenyl 5-ethoxy-2-phenyl-oxazole-4-carboxylate] gave a mortality at 500 ppm (Nilaparvata lugenis) of no less than 90%.

For `CC(CCCCOC(=O)c1ccc(Cl)nc1)=C(F)F` [Compound 1, 6,6-di-fluoro-5-methyl-5-hexenyl 6-chloronicotinate], the “Test result Female” value (ddy mouse (Slc:ddy)) was 0/3, the “Test result Male” value (ddy mouse (Slc:ddy)) was 0/3 and the mortality at 500 ppm (Nilaparvata lugenis) was no less than 90%.
